Test results published in patent US5202349A, “Substituted phenylacetylenes, pharmaceutical compositions containing these compounds and processes for the preparation of these compounds and compositions” (Gruenenthal GmbH, priority 1990, dated 1993).

How the values were obtained:
[1] = test system: endotoxin/galactosamine-induced hepatitis, increase of liver specific enzymes in the serum; experiment: Endotoxin/galactosamine-induced hepatitis in mice (septic shock model); type: in vivo; conditions: 10 mg/kg i.p. for each of five applications, 8 hours after endotoxin
Description: As a test model to evaluate the effects of test compounds in septic shock the endotoxin/galactosamine-induced hepatitis in mice has been used. […] The intraperitoneal application of 5-lipoxygenase inhibitors 30 minutes before, simultaneously with and 2, 4 and 6 hours after the application of endotoxin inhibitis the hepatitis-induced increase of the serum activities of these enzymes. On administration of compounds of the formula I in doses of 10 mg/kg for each of the five applications the following percentual inhibitions of the increase of the enzymes GPT and SDH were achieved (the increase of enzymatic activities in control animals was set at 100%): […]

[2] = target: T1, cyclooxygenase (Ovis aries, UniProt P05979); experiment: Inhibition of cyclooxygenase in sheep seminal vesicle microsomes ([14C]-arachidonic acid, TLC); type: biochemical; conditions: pH 7.0, read-out: IC50 for inhibition of cyclooxygenase (B)
T1 construct: suspension of sheep seminal vesicle microsomes; from tissue; host or cells: sheep seminal vesicle microsomes
T1 sequence (P05979 25-600): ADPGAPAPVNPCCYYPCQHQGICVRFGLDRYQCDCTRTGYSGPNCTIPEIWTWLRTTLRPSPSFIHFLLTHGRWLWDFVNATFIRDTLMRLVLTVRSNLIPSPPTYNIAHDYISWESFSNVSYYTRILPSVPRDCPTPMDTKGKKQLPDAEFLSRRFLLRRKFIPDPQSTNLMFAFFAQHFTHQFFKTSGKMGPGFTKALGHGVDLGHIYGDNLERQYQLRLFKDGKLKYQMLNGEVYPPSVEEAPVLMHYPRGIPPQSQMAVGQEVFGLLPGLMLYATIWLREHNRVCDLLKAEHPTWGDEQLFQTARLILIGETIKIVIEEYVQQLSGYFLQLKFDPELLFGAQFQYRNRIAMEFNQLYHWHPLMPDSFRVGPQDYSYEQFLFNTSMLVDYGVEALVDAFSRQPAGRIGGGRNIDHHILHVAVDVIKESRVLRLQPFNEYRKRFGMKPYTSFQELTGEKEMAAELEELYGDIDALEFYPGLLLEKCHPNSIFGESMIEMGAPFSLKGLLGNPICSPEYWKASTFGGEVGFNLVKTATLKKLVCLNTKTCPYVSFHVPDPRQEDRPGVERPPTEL
Description: The effect of the test compounds on the activity of cyclooxygenase was tested using a suspension of sheep seminal vesicle microsomes in 50 mM potassium phosphate buffer of pH 7.0 which was incubated with the solvent only (as control) or with the test compound and [^14 C]-arachidonic acid. The "IC50 -values (B)" (i.e. the concentration of the test compound which causes an 50%-inhibition of the cyclooxygenase) were determined by thin layer chromatography and by means of a TLC-Linear-Analyzer.

[3] = target: T2, 5-lipoxygenase (Rattus norvegicus, UniProt P12527); experiment: Inhibition of 5-lipoxygenase in rat basophilic leukemia cells ([14C]-arachidonic acid, TLC); type: cell-based; conditions: for IC50: rat basophilic leukemia cells, standardized to nordihydroguaiaretic acid; for Quotient (IC50 cyclooxygenase (B) / 5-lipoxygenase (A)): selectivity
T2 construct: endogenous in cells; host or cells: rat basophilic leukemia cells
T2 sequence (P12527 1-673): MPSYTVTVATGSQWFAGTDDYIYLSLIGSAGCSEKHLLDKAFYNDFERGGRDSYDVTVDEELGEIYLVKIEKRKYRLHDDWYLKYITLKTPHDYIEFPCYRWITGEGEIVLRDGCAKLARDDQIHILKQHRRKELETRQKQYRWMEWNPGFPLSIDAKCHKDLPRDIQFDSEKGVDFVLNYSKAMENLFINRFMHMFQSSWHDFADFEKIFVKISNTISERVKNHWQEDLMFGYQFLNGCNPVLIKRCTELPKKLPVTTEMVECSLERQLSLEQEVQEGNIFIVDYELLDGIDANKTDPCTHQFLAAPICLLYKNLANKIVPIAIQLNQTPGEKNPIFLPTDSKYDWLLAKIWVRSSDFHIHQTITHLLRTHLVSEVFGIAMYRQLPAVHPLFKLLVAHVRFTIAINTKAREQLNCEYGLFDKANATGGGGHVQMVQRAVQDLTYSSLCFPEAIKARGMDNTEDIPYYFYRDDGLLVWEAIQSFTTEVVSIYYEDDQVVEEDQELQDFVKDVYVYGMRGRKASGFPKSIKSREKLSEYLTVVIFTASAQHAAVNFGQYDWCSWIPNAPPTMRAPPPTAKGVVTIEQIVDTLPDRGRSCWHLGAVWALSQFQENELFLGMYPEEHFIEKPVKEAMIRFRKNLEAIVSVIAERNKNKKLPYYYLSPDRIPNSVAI
Description: To 1 ml each of this suspension there was added indomethacin (10 μM) and calcium chlorid (2 mM) and then the mixture was incubated in presence or absence of a test compound for 3 minutes and thereafter with 20 μM of [^14 C]-arachidonic acid and 20 μM of the calcium ionophore A 23 187 for 10 minutes. The reaction was stopped by adding 20 μl of glacial acetic acid and then the mixture was extracted with ethyl acetate to isolate the metabolites of arachidonic acid formed by the enzymatic action of 5-lipoxygenase. These were separated by thin layer chromatography using a solvent mixture known to be suitable for leukotriene analysis [c.f. Jakschik et al., Biochem. Biophys. Res. Commun. 102, 624 (1981)]. The distribution of the radioactivity to the different metabolites was measured using a TLC Linear Analyzer. By bringing into relationship the percentages of the amount of the products formed under the action of 5-lipoxygenase (5-HETE, isomers of LTB4) in the controls (tests performed in absence of test compounds) and in the presence of test compounds of formula I in different concentrations the "IC50 -value" (i.e. the concentration of the test compound which causes an 50%-inhibition of the 5-lipoxygenase) is determined. For standardization these values then were brought into relationship to the IC50 -values determined in the same manner for the standard compound nordihydroguaiaretic acid.

[4] = test system: ex vivo iLTB4-formation (5-lipoxygenase activity) in whole blood of rats; experiment: Inhibition of ex vivo iLTB4-formation in rat whole blood after oral administration; design: species or system male rats (Wistar strain)
Description: The bioavailability of the compounds of formula I after oral administration was characterized by means of an ex vivo biochemical assessment method described by Tateson et al. in Brit. Pharmacol., 94, 528 (1988).
Compounds of formula I were orally administered to male rats (Wistar strain). 1 hour later the rats were bled by heart puncture in letal CO2 -narcosis. The 5-lipoxygenase reaction was triggered by the addition of the calcium-ionophor A23187 to an end concentration of […] to aliquots of rat whole blood and subsequent incubation for 30 minutes at 37° C. in a water bath. At the end of the incubation the samples were centrifuged to collect the cell free plasma. The concentration of the immunoreactive LTB4 (iLTB4 ng/ml) in each plasma sample was determined by a LTB4 -radioimmunoassay (^3 H-LTB4 -RIA, Amersham) by means of a LTB4 -standard curve in diluted rat plasma. For calculation of the percent inhibition of ex vivo iLTB4 -formation in whole blood of rats treated with the compounds of formula I rats treated with appropiate vehicle solution were included in all experiments, aliquots of their blood were run in parallel and were processed in the same way as described. The mean iLTB4 -formation per ml plasma of these vehicle treated control rats served as 100 percent value of normal control 5-lipoxygenase activity. The percent inhibition of the ex vivo iLTB4 -formation after oral administration of compounds of formula I was calculated as follows: 100 minus 100 times the quotient of the mean iLTB4 concentration per ml plasma of the rats treated with compounds of formula I […] and the mean iLTB4 concentration per ml plasma of the control rats.

[5] = test system: bronchoconstriction; experiment: Antiasthmatic activity: ovalbumin-induced bronchoconstriction in passively sensitized guinea pigs (Konzett-Rössler); type: in vivo; conditions: 100 mg/kg oral, 0.2 mg/kg i.v. ovalbumin challenge, 10 minutes
Description: The antiasthmatic activity of compounds of formula I was tested in narcotised and ventilated guinea pigs. For the induction of an asthmatic reaction, the animals were passively sensitized by a single intraperitoneal injection of anti-ovalbumin serum. 48 hours afterwards the asthmatic reaction was elicited by intravenous challenge with 0.2 mg/kg ovalbumin. The immediately resulting bronchoconstriction was measured as increase in overflow according to the Konzett-Rbssler method for a period of 10 minutes. Effects caused by histamine, serotonin and sympathic counterreaction were eliminated by intravenous pretreatment with 2.15 mg/kg mepyramine, 46.4 μg/kg propranolol, 4.64 mg/kg atropin and 1 mg/kg methysergide, all given 5 minutes before challenge.
After oral administration of the product of Example 5a or of the product of Example 9, in doses of 100 mg/kg each, the bronchoconstriction was inhibited by 54% or by 67%, respectively.

With `COc1ccc(C#Cc2cccc(C(C)N(O)C(N)=O)c2)cc1` (centres unmarked) [Example 9, N-Hydroxy-N-{1-[3-(4-methoxy-phenylethynyl)-phenyl]-ethyl}-urea] the “Inhibition of increase of GPT” value [1] was 94%, the “Inhibition of increase of SDH” value [1] was 90% and the IC50 [2] was 100 µM. The IC50 [3] was 150 nM, the “Quotient (IC50 cyclooxygenase (B) / 5-lipoxygenase (A))” value [3] was 667 and the “inhibition of the ex vivo iLTB4-formation” value ([4]; 10 mg/kg oral) was 86%. It also gave an inhibition of bronchoconstriction [5] of 67%.
For `CC(=O)N(O)Cc1cccc(C#Cc2ccc3ccccc3c2)c1` [Example 1, N-[3-(Naphth-2-yl-ethynyl)-benzyl]-acetohydroxamic acid], the “Inhibition of increase of GPT” value [1] was 47%, the “Inhibition of increase of SDH” value [1] was 58% and the IC50 [2] was over 500 µM. For the same compound, the IC50 [3] was 670 nM and the “Quotient (IC50 cyclooxygenase (B) / 5-lipoxygenase (A))” value [3] was over 746.
`COc1ccc(C#Cc2cccc(C(C)N(O)C(C)=O)c2)cc1` (centres unmarked) [Example 5a] was tested, and the IC50 [2] was 440 µM, the IC50 [3] was 290 nM and the “Quotient (IC50 cyclooxygenase (B) / 5-lipoxygenase (A))” value [3] was 1517. It also gave an inhibition in vivo at 21.5 mg/kg ([4]; Rattus norvegicus, 21.5 mg/kg oral, blood taken 1 hour later) of 75% and an inhibition of bronchoconstriction [5] of 54%.
